Measured values as given in patent US8575193B2, “N-substituted tetrahydroisoquinoline/isoindoline hydroxamic acid compounds” (4SC AG, priority 2008, dated 2013).
Structures can show the parent of a compound that is named as a salt.

How the values were obtained:
rHDAC3 = biological target: T1, rHDAC3 (Homo sapiens, UniProt O15379); test: rHDAC3 enzymatic assay (recombinant FLAG-HDAC3); format: biochemical; conditions: FLAG-HDAC3 from insect cells; 6 μM Ac-NH-GGK(Ac)-AMC, 2 h at 30° C.; read-out: rHDAC3 [pIC50] (converted)
T1 construct: FLAG; made in house; host or cells: baculovirus-infected Sf21 insect cells
From the text: (§1) Human HDAC1 and HDAC6 fused with the FLAG epitope are stably expressed in HEK293 cells while human HDAC3 and HDAC8 fused with the FLAG epitope are overexpressed in baculo-virus infected insect (Sf21) cells. To ensure stability of FLAG-HDAC3 the SMRT protein is co-expressed in the corresponding insect cells. […] FLAG-HDAC3 and FLAG-HDAC8 are also purified by M2-agarose affinity chromatography after mass cultivation of the insect cells and cell lysis.
(§2) The HDAC enzyme activity assay is done as described by Wegener et al. (Chem. & Biol. 10, 61-68, 2003). Briefly 40 μl of a 1:100 dilution (=0.4 μl) nuclear HeLa extract (mixture of class I and II HDACs), 29 μl enzyme buffer (15 mM Tris HCl pH 8.1, 0.25 mM EDTA, 250 mM NaCl, 10% v:v glycerol) and 1 μl test compound are added to a well of a 96 well microtiter plate and reaction started by addition of 3 μl substrate (Ac-NH-GGK(Ac)-AMC; final concentration 25 μM and final volume […]). […] After incubation at room temperature for further 40 min, fluorescence is measured using a Wallac Victor 1420 multilabel counter (Ex 355 nm, Em 460 nm) for quantification of AMC (7-amino-4-methylcoumarin) generated by trypsine cleavage of the deacetylated peptide. […] The corresponding pIC50 values of the compounds for HDAC inhibitory activity are determined from the concentration-effect curves by means of non-linear regression (Graphpad Prism software).
(§3) The HDAC1, HDAC3 and HDAC6 enzymatic assays are done with slight modifications with recombinant FLAG-HDAC1 and FLAG-HDAC6 proteins isolated from HEK293 cell lysates or recombinant FLAG-HDAC3 isolated from insect cells, respectively. The HDAC8 enzymatic assay using recombinant FLAG-HDAC8 isolated from insect cells is done with a different substrate. About 4.5 ng/well FLAG-HDAC1 and 3.1 ng/well FLAG-HDAC6 (dependent on batches and specific activity) are incubated with 6 μM or 10 μM Ac-NH-GGK(Ac)-AMC substrate, respectively, for 3 h at 30° C. About 1.7 ng/well FLAG-HDAC3 is incubated with 6 μM Ac-NH-GGK(Ac)-AMC substrate for 2 h at 30° C., while approximately 130 ng/well FLAG-HDAC8 is incubated with 50 μM Ac-RHK(Ac)K(Ac)-AMC substrate for 3 h at 30° C. Termination of the reaction and all further steps are done as described for HeLa cell nuclear extracts as a source for HDAC enzymatic activity. The corresponding pIC50 values of the compounds for HDAC1, HDAC3, HDAC6 and HDAC8 inhibitory activity are determined from the concentration-effect curves by means of non-linear regression.

[1] = Cellular cytotoxicity assay (Alamar Blue/Resazurin), A549; format: cell-based; conditions: human, A549 cells; A549, 72 hours incubation, Resazurin; read-out: A549 Cytotoxicity [pIC50] (converted)
Description: (§4) The anti-proliferative activity of the compounds as described herein, is evaluated with various solid and hematological cancer cell lines using the Alamar Blue (Resazurin) cell viability assay (O'Brien et al, Eur J Biochem 267, 5421-5426, 2000). Resazurin is reduced to the fluorescent resorufin by cellular dehydrogenase activity, correlating with viable, proliferating cells. Test compounds are dissolved as 20 mM solutions in dimethylsulfoxide (DMSO) and subsequently diluted in semi-logarithmic steps. The cancer cell lines are seeded into 96 well flat bottom plates at respective cell densities in a volume of 200 μl per well to allow continuous proliferation during the experiment. 24 hours after seeding 1 μl each of the compound dilutions is added into each well of the 96 well plate. Wells containing untreated control cells are filled with 200 μl DMEM medium containing 0.5% v:v DMSO. The cells are then incubated with the substances for 72 hours at 37° C. in a humidified atmosphere containing 5% carbon dioxide. To determine the viability of the cells, 20 μl of a Resazurin solution (Sigma; 90 mg/l) are added. After 4 hours incubation at 37° C. the fluorescence is measured at an extinction of 544 nm and an emission of 590 nm. For the calculation of the cell viability the emission value from untreated cells is set as 100% viability and the emission rates of treated cells are set in relation to the values of untreated cells. Viabilities are expressed as % values. The corresponding pIC50 values of the compounds for cytotoxic activity are determined from the concentration-effect curves by means of non-linear regression.

rHDAC1 = biological target: T2, rHDAC1 (Homo sapiens, UniProt Q13547); test: rHDAC1 enzymatic assay (recombinant FLAG-HDAC1); format: biochemical; conditions: FLAG-HDAC1 from HEK293; 6 μM Ac-NH-GGK(Ac)-AMC, 3 h at 30° C.; read-out: rHDAC1 [pIC50] (converted)
T2 construct: FLAG; made in house
From the text: as §1, §2, §3

[2] = Cellular cytotoxicity assay (Alamar Blue/Resazurin), RKOp21; format: cell-based; conditions: human, RKOp21 cells; RKOp21, 72 hours incubation, Resazurin; read-out: RKOp21 Cytotoxicity [pIC50] (converted)
Description: as §4

T1 sequence (O15379 whole entry): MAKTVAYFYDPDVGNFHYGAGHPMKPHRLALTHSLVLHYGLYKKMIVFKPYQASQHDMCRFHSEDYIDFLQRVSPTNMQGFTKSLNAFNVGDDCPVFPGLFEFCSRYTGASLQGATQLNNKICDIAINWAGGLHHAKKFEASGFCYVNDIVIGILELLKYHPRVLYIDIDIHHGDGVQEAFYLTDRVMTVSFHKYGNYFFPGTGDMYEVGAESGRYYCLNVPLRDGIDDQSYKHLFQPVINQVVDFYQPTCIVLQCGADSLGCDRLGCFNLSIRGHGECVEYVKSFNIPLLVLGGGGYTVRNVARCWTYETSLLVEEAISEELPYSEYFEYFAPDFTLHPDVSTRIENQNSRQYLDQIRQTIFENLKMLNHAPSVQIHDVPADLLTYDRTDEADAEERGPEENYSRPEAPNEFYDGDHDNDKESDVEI
T1 sequence (Q9Y618 whole entry partner): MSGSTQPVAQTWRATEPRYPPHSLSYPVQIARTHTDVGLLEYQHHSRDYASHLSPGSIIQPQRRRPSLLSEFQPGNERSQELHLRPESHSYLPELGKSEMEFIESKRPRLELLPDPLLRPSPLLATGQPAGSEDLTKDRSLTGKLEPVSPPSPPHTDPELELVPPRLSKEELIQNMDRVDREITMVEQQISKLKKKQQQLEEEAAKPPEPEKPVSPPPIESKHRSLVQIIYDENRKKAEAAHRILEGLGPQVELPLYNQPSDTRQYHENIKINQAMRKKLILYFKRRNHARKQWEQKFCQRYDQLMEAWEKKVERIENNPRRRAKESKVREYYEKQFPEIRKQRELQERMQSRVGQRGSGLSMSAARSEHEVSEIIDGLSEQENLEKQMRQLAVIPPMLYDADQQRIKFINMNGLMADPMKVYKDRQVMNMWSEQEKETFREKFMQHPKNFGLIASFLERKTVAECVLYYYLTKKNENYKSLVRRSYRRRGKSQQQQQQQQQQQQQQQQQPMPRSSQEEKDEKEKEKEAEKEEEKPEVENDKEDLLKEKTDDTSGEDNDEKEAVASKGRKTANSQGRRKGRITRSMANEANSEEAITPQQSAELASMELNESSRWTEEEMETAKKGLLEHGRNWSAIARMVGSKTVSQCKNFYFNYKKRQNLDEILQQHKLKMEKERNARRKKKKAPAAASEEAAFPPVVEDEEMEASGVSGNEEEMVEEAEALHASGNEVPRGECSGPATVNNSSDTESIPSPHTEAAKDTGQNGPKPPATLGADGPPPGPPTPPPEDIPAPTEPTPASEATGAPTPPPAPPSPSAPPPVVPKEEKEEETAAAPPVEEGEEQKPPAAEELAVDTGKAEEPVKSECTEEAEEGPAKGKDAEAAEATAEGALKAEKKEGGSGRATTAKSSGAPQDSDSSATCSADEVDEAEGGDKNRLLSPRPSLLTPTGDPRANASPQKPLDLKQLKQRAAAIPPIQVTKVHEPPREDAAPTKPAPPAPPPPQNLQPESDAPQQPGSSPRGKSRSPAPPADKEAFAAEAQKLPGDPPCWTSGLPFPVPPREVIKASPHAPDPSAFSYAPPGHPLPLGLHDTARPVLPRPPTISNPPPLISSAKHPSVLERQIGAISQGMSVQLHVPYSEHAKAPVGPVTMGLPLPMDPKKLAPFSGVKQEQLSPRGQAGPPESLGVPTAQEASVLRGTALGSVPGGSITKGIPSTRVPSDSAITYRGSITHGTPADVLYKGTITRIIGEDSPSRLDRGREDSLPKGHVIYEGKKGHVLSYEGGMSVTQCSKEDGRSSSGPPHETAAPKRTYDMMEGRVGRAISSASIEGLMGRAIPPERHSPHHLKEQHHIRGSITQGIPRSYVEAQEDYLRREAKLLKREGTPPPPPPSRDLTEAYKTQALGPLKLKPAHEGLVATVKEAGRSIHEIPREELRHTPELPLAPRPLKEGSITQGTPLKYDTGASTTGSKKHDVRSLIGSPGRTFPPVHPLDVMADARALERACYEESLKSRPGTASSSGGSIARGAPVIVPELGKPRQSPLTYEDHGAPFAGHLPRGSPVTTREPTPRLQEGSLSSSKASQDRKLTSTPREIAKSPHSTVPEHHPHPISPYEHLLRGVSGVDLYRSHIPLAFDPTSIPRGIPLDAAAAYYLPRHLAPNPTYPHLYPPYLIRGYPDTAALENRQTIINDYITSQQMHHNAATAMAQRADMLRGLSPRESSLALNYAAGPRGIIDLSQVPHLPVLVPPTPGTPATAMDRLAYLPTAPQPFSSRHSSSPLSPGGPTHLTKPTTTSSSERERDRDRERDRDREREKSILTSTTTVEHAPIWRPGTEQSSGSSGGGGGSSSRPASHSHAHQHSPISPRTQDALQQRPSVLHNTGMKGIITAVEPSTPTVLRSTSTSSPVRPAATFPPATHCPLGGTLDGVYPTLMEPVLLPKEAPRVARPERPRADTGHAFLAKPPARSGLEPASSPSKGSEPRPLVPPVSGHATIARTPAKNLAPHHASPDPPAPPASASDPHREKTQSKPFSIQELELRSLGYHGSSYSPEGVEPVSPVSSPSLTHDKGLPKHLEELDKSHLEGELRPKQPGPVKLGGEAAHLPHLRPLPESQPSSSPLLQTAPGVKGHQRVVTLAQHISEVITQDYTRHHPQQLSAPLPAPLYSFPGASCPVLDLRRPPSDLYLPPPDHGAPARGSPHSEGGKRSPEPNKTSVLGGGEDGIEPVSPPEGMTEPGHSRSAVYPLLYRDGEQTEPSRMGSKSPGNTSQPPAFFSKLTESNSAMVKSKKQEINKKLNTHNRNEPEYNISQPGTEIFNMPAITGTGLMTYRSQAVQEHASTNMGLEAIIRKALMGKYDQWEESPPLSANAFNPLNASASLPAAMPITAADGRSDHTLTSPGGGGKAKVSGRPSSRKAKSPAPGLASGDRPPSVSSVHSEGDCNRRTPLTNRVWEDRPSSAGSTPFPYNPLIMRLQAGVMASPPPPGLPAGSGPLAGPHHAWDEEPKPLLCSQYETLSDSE
T2 sequence (Q13547 whole entry): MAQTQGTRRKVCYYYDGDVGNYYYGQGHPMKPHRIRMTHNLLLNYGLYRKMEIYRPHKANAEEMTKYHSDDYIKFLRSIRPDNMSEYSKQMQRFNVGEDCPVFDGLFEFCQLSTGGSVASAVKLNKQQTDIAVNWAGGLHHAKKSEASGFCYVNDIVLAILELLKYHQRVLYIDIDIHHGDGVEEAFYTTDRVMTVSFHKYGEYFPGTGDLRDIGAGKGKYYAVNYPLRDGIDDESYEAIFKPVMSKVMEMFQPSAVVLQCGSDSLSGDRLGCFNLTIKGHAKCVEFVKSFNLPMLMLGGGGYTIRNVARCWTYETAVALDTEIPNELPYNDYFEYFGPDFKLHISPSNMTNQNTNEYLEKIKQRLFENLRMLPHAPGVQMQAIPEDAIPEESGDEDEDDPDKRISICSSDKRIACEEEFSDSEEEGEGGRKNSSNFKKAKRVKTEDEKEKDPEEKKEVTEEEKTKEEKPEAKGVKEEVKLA

| IC50 (rHDAC3) [µM] | IC50 (rHDAC1) [µM] | melting point [°C] | Compound | IC50 at 72 h [1] [µM] | IC50 at 72 h [2] [µM] |
| --- | --- | --- | --- | --- | --- |
| 10 to 100 | 0.1 to 10 | – | O=C(NO)c1ccc2c(c1)CN(C(=O)C1CCOC1)CC2 (centres unmarked) [Example 20, N-Hydroxy-2-(tetrahydrofuran-3-ylcarbonyl)-1,2,3,4-tetrahydroisoquinoline-7-carboxamide] | > 100 | > 100 |
| 10 to 100 | 10 to 100 | – | COCCCOC(=O)N1CCc2cc(C(=O)NO)ccc2C1 [Example 6, 3-Methoxypropyl-6-(hydroxycarbamoyl)-3,4-dihydroisoquinoline-2(1H)-carboxylate] | > 100 | > 100 |
| 10 to 100 | 0.1 to 10 | – | O=C(NO)c1ccc2c(c1)CN(C(=O)Cc1cccnc1)CC2 [Example 19, N-Hydroxy-2-(pyridin-3-ylacetyl)-1,2,3,4-tetrahydroisoquinoline-7-carboxamide hydrochloride] | > 100 | – |
| 10 to 100 | 0.1 to 10 | – | CC#CC(=O)N1CCc2ccc(C(=O)NO)cc2C1 [Example 17, 2-But-2-ynoyl-N-hydroxy-1,2,3,4-tetrahydroisoquinoline-7-carboxamide] | > 100 | – |
| 10 to 100 | 0.1 to 10 | – | O=C(NO)c1ccc2c(c1)CN(C(=O)Cc1ccccn1)CC2 [Example 21, N-Hydroxy-2-(pyridin-2-ylacetyl)-1,2,3,4-tetrahydroisoquinoline-7-carboxamide hydrochloride] | > 100 | – |
| 10 to 100 | 0.1 to 10 | – | Cc1ccc(C(=O)N2CCc3ccc(C(=O)NO)cc3C2)cc1 [Example 23, N-Hydroxy-2-(4-methylbenzoyl)-1,2,3,4-tetrahydroisoquinoline-7-carboxamide] | 1 to 100 | – |

Further lines, the compound ahead of its results:

| Compound | IC50 (rHDAC3) [µM] | IC50 (rHDAC1) [µM] | melting point [°C] | IC50 at 72 h [1] [µM] | IC50 at 72 h [2] [µM] |
| --- | --- | --- | --- | --- | --- |
| Cc1nccn1CC(=O)N1CCc2cc(C(=O)NO)ccc2C1 [Example 10, N-Hydroxy-2-[(2-methyl-1H-imidazol-1-yl)acetyl]-1,2,3,4-tetrahydroisoquinoline-6-carboxamide hydrochloride] | 10 to 100 | 10 to 100 | – | > 100 | – |
| O=C(NO)c1ccc2c(c1)CCN(C(=O)Cc1c[nH]c3ccccc13)C2 [Example 1, N-Hydroxy-2-(indol-3-ylacetyl)-1,2,3,4-tetrahydroisoquinoline-6-carboxamide hydrochloride] | 1 to 10 | 0.1 to 10 | – | 1 to 100 | 1 to 100 |
| CN(C)CCCC(=O)N1CCc2cc(C(=O)NO)ccc2C1 [Example 9, 2-[4-(Dimethylamino)butanoyl]-N-hydroxy-1,2,3,4-tetrahydroisoquinoline-6-carboxamide hydrochloride] | 10 to 100 | 0.1 to 10 | – | 1 to 100 | > 100 |
| CC(=O)N1CCc2cc(C(=O)NO)ccc2C1 [Example 12, 2-Acetyl-N-hydroxy-1,2,3,4-tetrahydroisoquinoline-6-carboxamide] | 10 to 100 | 10 to 100 | – | > 100 | – |
| O=C(NO)c1ccc2c(c1)CN(C(=O)Cc1c[nH]c3ccccc13)CC2 [Example 18, N-Hydroxy-2-(1H-indol-3-ylacetyl)-1,2,3,4-tetrahydroisoquinoline-7-carboxamide] | 1 to 10 | 0.1 to 10 | – | 1 to 100 | – |
| O=C(NO)c1ccc2c(c1)CCN(C(=O)CCc1cccnc1)C2 [Example 7, N-Hydroxy-2-(3-pyridin-3-ylpropanoyl)-1,2,3,4-tetrahydroisoquinoline-6-carboxamide hydrochloride] | 10 to 100 | 10 to 100 | – | > 100 | – |
| O=C(NO)c1ccc2c(c1)CCN(C(=O)C1CC1)C2 [Example 16, N-Hydroxy-2-(cyclopropylcarbonyl)-1,2,3,4-tetrahydroisoquinoline-6-carboxamide] | 10 to 100 | 0.1 to 10 | 90 | > 100 | – |
| O=C(NO)c1ccc2c(c1)CCN(C(=O)Cc1cccnc1)C2 [Example 8, N-Hydroxy-2-(pyridin-3-ylacetyl)-1,2,3,4-tetrahydroisoquinoline-6-carboxamide hydrochloride] | 10 to 100 | 10 to 100 | – | > 100 | > 100 |
| O=C(NO)c1ccc2c(c1)CCN(C(=O)C1CCC1)C2 [Example 3, 2-(Cyclobutylcarbonyl)-N-hydroxy-1,2,3,4-tetrahydroisoquinoline-6-carboxamide] | 10 to 100 | 0.1 to 10 | – | > 100 | > 100 |
| COCCCNC(=O)N1CCc2cc(C(=O)NO)ccc2C1 [Example 5, N6-Hydroxy-N2-(3-methoxypropyl)-3,4-dihydroisoquinoline-2,6(1H)-dicarboxamide] | 10 to 100 | 0.1 to 10 | – | > 100 | > 100 |
| O=C(NO)c1ccc2c(c1)CN(C(=O)NCCc1ccccc1)CC2 [Example 22, N7-Hydroxy-N2-(2-phenylethyl)-3,4-dihydroisoquinoline-2,7(1H)-dicarboxamide] | 1 to 10 | 0.1 to 10 | – | 1 to 100 | – |
| COc1ccc2[nH]c(C(=O)N3CCc4ccc(C(=O)NO)cc4C3)cc2c1 [Example 24, N-Hydroxy-2-[(5-methoxy-1H-indol-2-yl)carbonyl]-1,2,3,4-tetrahydroisoquinoline-7-carboxamide] | 1 to 10 | 0.1 to 10 | – | 1 to 100 | 1 to 100 |
| CNC(=O)N1CCc2cc(C(=O)NO)ccc2C1 [Example 4, N6-Hydroxy-N2-methyl-3,4-dihydroisoquinoline-2,6(1H)-dicarboxamide] | 10 to 100 | 0.1 to 10 | – | > 100 | > 100 |
| O=C(NO)c1ccc2c(c1)CCN(C(=O)C1CCOC1)C2 (centres unmarked) [Example 13, N-Hydroxy-2-(tetrahydrofuran-3-ylcarbonyl)-1,2,3,4-tetrahydroisoquinoline-6-carboxamide] | 10 to 100 | 10 to 100 | – | > 100 | > 100 |
